Experimental data reported in ChEMBL document CHEMBL1799965, “Synthesis of useful fragments in drug discovery: 2-Amino-5-tert-butylpyridine and its oxidised analogues” (Bioorg Med Chem Lett, 2011).
≈ marks a conversion by molar mass, not a printed value.

Legend:
[1] = Membrane affinity to immobilized artificial membrane by HPLC method; type: physicochemical
[2] = Solubility of the compound in simulated fasted intestinal fluid; type: physicochemical; settings: simulated gi fluid
[3] = Solubility of the compound in buffer at pH 6.8; type: physicochemical
[4] = molecular target: Albumin (Homo sapiens, UniProt P02768); assay: Binding affinity to human serum albumin by HPLC method
[5] = Lipophilicity, Log D of the compound by HPLC method; type: physicochemical

Chain of Albumin (P02768 whole entry): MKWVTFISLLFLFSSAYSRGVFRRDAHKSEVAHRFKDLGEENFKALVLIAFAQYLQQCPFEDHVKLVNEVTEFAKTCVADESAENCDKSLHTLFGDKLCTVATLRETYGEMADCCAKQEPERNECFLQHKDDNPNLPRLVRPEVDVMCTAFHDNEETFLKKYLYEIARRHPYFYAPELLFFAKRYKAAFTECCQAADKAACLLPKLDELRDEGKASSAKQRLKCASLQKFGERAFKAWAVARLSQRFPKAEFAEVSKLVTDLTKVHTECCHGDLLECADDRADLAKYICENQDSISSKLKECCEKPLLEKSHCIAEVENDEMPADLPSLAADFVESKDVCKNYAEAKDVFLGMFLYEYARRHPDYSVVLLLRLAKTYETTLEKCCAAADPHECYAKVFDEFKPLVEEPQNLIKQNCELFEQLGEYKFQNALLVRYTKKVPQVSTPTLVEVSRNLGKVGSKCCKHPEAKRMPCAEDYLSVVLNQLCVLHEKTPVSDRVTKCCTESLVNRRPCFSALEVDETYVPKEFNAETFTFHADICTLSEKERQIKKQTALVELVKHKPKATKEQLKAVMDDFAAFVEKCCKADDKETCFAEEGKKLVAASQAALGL

Row | Structure (SMILES) | CHI [1] | solubility [2] [µM] | solubility [3] [µM] | Activity [4] [%] | logD [5]
1 | CC(C)(C)c1ccc(N)nc1 | 33 | 72 (≈ 10.8 µg/mL) | 59 (≈ 8.86 µg/mL) | 38.9 | 1.53
2 | CC(C)(C)c1ccc(N)cc1 | 35.5 | < 5 | < 5 | 78.5 | 2.83
